The values below come from article PMC5218480 (PLoS ONE, 2017).

The experiment deals with MV-4-11 cells. As to the kind of experiment: Gene expression microarray analysis (Affymetrix PrimeView) and GSEA. It is filed as cell-based, human. More on the design: RFU PODN (11730768_x_at) / Fold change /veh PODN (11730768_x_at) / RFU LINC00158 (11744669_a_at) / Fold change /veh LINC00158 (11744669_a_at) / RFU DUSP10 (11751237_a_at) / Fold change /veh DUSP10 (11751237_a_at) / RFU ID3 (11757404_x_at) / Fold change /veh ID3 (11757404_x_at) / RFU PLEKHG5 (11737974_s_at) / Fold change /veh PLEKHG5 (11737974_s_at) / RFU LRRC4B (11730491_at) / Fold change /veh LRRC4B (11730491_at) / RFU GIMAP4 (11747438_a_at) / Fold change /veh GIMAP4 (11747438_a_at) / RFU KRT8 (11758183_x_at) / Fold change /veh KRT8 (11758183_x_at) / RFU CNN1 (11734310_a_at) / Fold change /veh CNN1 (11734310_a_at) / RFU VPS37D (11726825_at) / Fold change /veh VPS37D (11726825_at) / RFU C10orf10 (11716522_x_at) / Fold change /veh C10orf10 (11716522_x_at) / RFU KIR2DL2 /// KIR2DL4 /// KIR2DL5A /// KIR2DL5B /// KIR2DS1 /// KIR2DS2 /// KIR2DS3 /// KIR2DS4 /// KIR3DL3 /// KIR3DL3 /// KIR3DS1 (11738374_at) / Fold change /veh KIR2DL2 /// KIR2DL4 /// KIR2DL5A /// KIR2DL5B /// KIR2DS1 /// KIR2DS2 /// KIR2DS3 /// KIR2DS4 /// KIR3DL3 /// KIR3DL3 /// KIR3DS1 (11738374_at) / RFU C1QL1 (11718748_at) / Fold change /veh C1QL1 (11718748_at) / RFU TMPRSS4 (11747572_a_at) / Fold change /veh TMPRSS4 (11747572_a_at) / RFU HAMP (11756126_x_at) / Fold change /veh HAMP (11756126_x_at) / RFU RNFT2 (11725882_a_at) / Fold change /veh RNFT2 (11725882_a_at) / RFU NR4A2 (11747474_a_at) / Fold change /veh NR4A2 (11747474_a_at) / RFU ABCC12 (11746883_a_at) / Fold change /veh ABCC12 (11746883_a_at) / RFU TMEM136 (11760407_x_at) / Fold change /veh TMEM136 (11760407_x_at) / RFU CLDN22 /// WWC2 (11732394_at) / Fold change /veh CLDN22 /// WWC2 (11732394_at) / RFU HLA-DPB1 (11760878_x_at) / Fold change /veh HLA-DPB1 (11760878_x_at) / RFU SPINT1 (11716480_a_at) / Fold change /veh SPINT1 (11716480_a_at) / RFU GAP43 (11754022_s_at) / Fold change /veh GAP43 (11754022_s_at) / RFU A4GNT (11735810_at) / Fold change /veh A4GNT (11735810_at) / RFU PRB3 (11715151_x_at) / Fold change /veh PRB3 (11715151_x_at) / RFU TUBB4B (11761932_at) / Fold change /veh TUBB4B (11761932_at) / RFU CAPN14 (11732068_a_at) / Fold change /veh CAPN14 (11732068_a_at) / RFU TMCC2 (11721928_a_at) / Fold change /veh TMCC2 (11721928_a_at) / RFU IRGQ (11745062_a_at) / Fold change /veh IRGQ (11745062_a_at) / RFU FAM174B (11720279_a_at) / Fold change /veh FAM174B (11720279_a_at) / RFU TMPRSS4 (11748680_a_at) / Fold change /veh TMPRSS4 (11748680_a_at) / RFU FAM212B (11763350_a_at) / Fold change /veh FAM212B (11763350_a_at) / RFU PLEKHG5 (11743358_a_at) / Fold change /veh PLEKHG5 (11743358_a_at) / RFU ZSCAN30 (11745921_a_at) / Fold change /veh ZSCAN30 (11745921_a_at) / RFU CMKLR1 (11741424_a_at) / Fold change /veh CMKLR1 (11741424_a_at) / RFU LOC101060620 /// MAPK8IP1 (11723275_at) / Fold change /veh LOC101060620 /// MAPK8IP1 (11723275_at) / RFU SPTSSB (11747773_x_at) / Fold change /veh SPTSSB (11747773_x_at) / RFU PRSS12 (11739890_at) / Fold change /veh PRSS12 (11739890_at) / RFU BIN1 (11741810_x_at) / Fold change /veh BIN1 (11741810_x_at) / RFU WNT11 (11732464_a_at) / Fold change /veh WNT11 (11732464_a_at) / RFU C10orf10 (11716521_a_at) / Fold change /veh C10orf10 (11716521_a_at) / RFU C5orf56 (11738089_at) / Fold change /veh C5orf56 (11738089_at) / RFU CYB561 (11721691_x_at) / Fold change /veh CYB561 (11721691_x_at) / RFU ANKRD19P (11752326_a_at) / Fold change /veh ANKRD19P (11752326_a_at) / RFU OR2T12 /// OR2T33 /// OR2T8 (11738714_s_at) / Fold change /veh OR2T12 /// OR2T33 /// OR2T8 (11738714_s_at) / RFU VCAN (11748164_a_at) / Fold change /veh VCAN (11748164_a_at) / RFU JSRP1 (11732532_at) / Fold change /veh JSRP1 (11732532_at) / RFU KRTAP10-11 (11738290_x_at) / Fold change /veh KRTAP10-11 (11738290_x_at) / RFU MYO3A (11730013_a_at) / Fold change /veh MYO3A (11730013_a_at) / RFU EBF3 (11725865_a_at) / Fold change /veh EBF3 (11725865_a_at) / RFU CAMK2N1 (11719241_x_at) / Fold change /veh CAMK2N1 (11719241_x_at) / RFU C5orf56 (11738088_a_at) / Fold change /veh C5orf56 (11738088_a_at) / RFU OLFML3 (11715873_a_at) / Fold change /veh OLFML3 (11715873_a_at) / RFU LOC100653217 /// NTM (11731650_a_at) / Fold change /veh LOC100653217 /// NTM (11731650_a_at) / RFU MAPK11 (11762145_a_at) / Fold change /veh MAPK11 (11762145_a_at) / RFU FIZ1 (11724087_x_at) / Fold change /veh FIZ1 (11724087_x_at) / RFU OASL (11726364_x_at) / Fold change /veh OASL (11726364_x_at) / RFU SOX15 (11748057_x_at) / Fold change /veh SOX15 (11748057_x_at) / RFU CD79A (11719716_a_at) / Fold change /veh CD79A (11719716_a_at) / RFU HIST1H1D (11736915_at) / Fold change /veh HIST1H1D (11736915_at) / RFU CASKIN2 (11723855_a_at) / Fold change /veh CASKIN2 (11723855_a_at) / RFU LOC730098 (11760151_x_at) / Fold change /veh LOC730098 (11760151_x_at) / RFU OR4N2 (11742367_at) / Fold change /veh OR4N2 (11742367_at) / RFU PRRT2 (11749266_a_at) / Fold change /veh PRRT2 (11749266_a_at) / RFU SNX32 (11753110_a_at) / Fold change /veh SNX32 (11753110_a_at) / RFU CDHR5 (11726645_a_at) / Fold change /veh CDHR5 (11726645_a_at) / RFU RCAN1 (11760418_a_at) / Fold change /veh RCAN1 (11760418_a_at) / RFU FAM167A (11723789_a_at) / Fold change /veh FAM167A (11723789_a_at) / RFU FAM26E (11764081_at) / Fold change /veh FAM26E (11764081_at) / RFU ISYNA1 (11749810_s_at) / Fold change /veh ISYNA1 (11749810_s_at) / RFU ACY1 (11761880_at) / Fold change /veh ACY1 (11761880_at) / RFU 11764098_at / Fold change /veh 11764098_at / RFU SAMD14 (11745864_x_at) / Fold change /veh SAMD14 (11745864_x_at) / RFU NPB (11741838_a_at) / Fold change /veh NPB (11741838_a_at) / RFU TMPRSS6 (11731388_a_at) / Fold change /veh TMPRSS6 (11731388_a_at) / RFU KRTAP10-2 (11738614_at) / Fold change /veh KRTAP10-2 (11738614_at) / RFU ARHGAP8 /// PRR5-ARHGAP8 (11727945_x_at) / Fold change /veh ARHGAP8 /// PRR5-ARHGAP8 (11727945_x_at) / RFU KRTAP5-7 /// NADSYN1 (11734609_at) / Fold change /veh KRTAP5-7 /// NADSYN1 (11734609_at) / RFU RASL12 (11751679_a_at) / Fold change /veh RASL12 (11751679_a_at) / RFU CDKN2B (11736163_a_at) / Fold change /veh CDKN2B (11736163_a_at) / RFU PRF1 (11729649_at) / Fold change /veh PRF1 (11729649_at) / RFU, ZNF638 /// ZNF638-IT1 / Fold change vs veh, ZNF638 /// ZNF638-IT1 / RFU, PANK3 / Fold change vs veh, PANK3 / RFU, SH3YL1 / Fold change vs veh, SH3YL1 / RFU, ZEB2 / Fold change vs veh, ZEB2 / RFU, NRIP1 / Fold change vs veh, NRIP1 / RFU, PTTG1IP / Fold change vs veh, PTTG1IP / RFU, CAPN2 / Fold change vs veh, CAPN2 / RFU, MED14 / Fold change vs veh, MED14 / RFU, SNORA58 / Fold change vs veh, SNORA58 / RFU, C1orf63 / Fold change vs veh, C1orf63 / RFU, LRRFIP1 / Fold change vs veh, LRRFIP1 / RFU, NDUFAF7 / Fold change vs veh, NDUFAF7 / RFU, SLC12A2 / Fold change vs veh, SLC12A2 / RFU, IBTK / Fold change vs veh, IBTK / RFU, ESF1 / Fold change vs veh, ESF1 / Fold change vs veh, TMEM50B / RFU, TAOK1 / Fold change vs veh, TAOK1 / RFU, ACBD3 / Fold change vs veh, ACBD3 / RFU, TMA16 / Fold change vs veh, TMA16 / RFU, RWDD3 / Fold change vs veh, RWDD3 / RFU, BCAT1 / Fold change vs veh, BCAT1 / RFU, EDEM3 / Fold change vs veh, EDEM3 / RFU, TMEM33 / Fold change vs veh, TMEM33 / RFU, WDR75 / Fold change vs veh, WDR75 / RFU, AHCTF1 / Fold change vs veh, AHCTF1 / RFU, TFRC / Fold change vs veh, TFRC / RFU, ZDHHC17 / Fold change vs veh, ZDHHC17 / RFU, NOM1 / Fold change vs veh, NOM1 / RFU, ARL8B / Fold change vs veh, ARL8B / RFU, ZBTB11 / Fold change vs veh, ZBTB11 / RFU, TAMM41 / Fold change vs veh, TAMM41 / RFU, KIAA1704 /// LOC100996395 / Fold change vs veh, KIAA1704 /// LOC100996395 / RFU, ING1 / Fold change vs veh, ING1 / RFU, TRMT61B / Fold change vs veh, TRMT61B / RFU, FUBP3 / Fold change vs veh, FUBP3 / RFU, TP53 / Fold change vs veh, TP53 / RFU, TNKS2 / Fold change vs veh, TNKS2 / RFU, ZFP14 / Fold change vs veh, ZFP14 / RFU, ACTR2 / Fold change vs veh, ACTR2 / RFU, PPP3R1 / Fold change vs veh, PPP3R1 / RFU, PIK3R1 / Fold change vs veh, PIK3R1 / RFU, HNRNPA1 / Fold change vs veh, HNRNPA1 / RFU, RNF170 / Fold change vs veh, RNF170 / RFU, ZNF28 / Fold change vs veh, ZNF28 / RFU, RNGTT / Fold change vs veh, RNGTT / RFU, OGT / Fold change vs veh, OGT / RFU, BRD1 / Fold change vs veh, BRD1 / RFU, MARS / Fold change vs veh, MARS / RFU, ZNF655 / Fold change vs veh, ZNF655 / RFU, FAHD1 / Fold change vs veh, FAHD1 / RFU, BDP1 / Fold change vs veh, BDP1 / RFU, LRRCC1 / Fold change vs veh, LRRCC1 / RFU, ARID1A / Fold change vs veh, ARID1A / RFU, ZNF146 / Fold change vs veh, ZNF146 / RFU, ZNF330 / Fold change vs veh, ZNF330 / RFU, GPN3 / Fold change vs veh, GPN3 / RFU, C9orf123 / Fold change vs veh, C9orf123 / RFU, N4BP2L2 / Fold change vs veh, N4BP2L2 / RFU, ARFIP1 / Fold change vs veh, ARFIP1 / RFU, FAM179B / Fold change vs veh, FAM179B / RFU, BCL10 / Fold change vs veh, BCL10 / RFU, UHRF1BP1L / Fold change vs veh, UHRF1BP1L / RFU, BET1 / Fold change vs veh, BET1 / RFU, CNOT2 / Fold change vs veh, CNOT2 / RFU, ZNF268 / Fold change vs veh, ZNF268 / Fold change vs veh, ZNF507 / RFU, DGCR2 / Fold change vs veh, DGCR2 / RFU, WDSUB1 / Fold change vs veh, WDSUB1 / Fold change vs veh, HSP90B1 /// MIR3652 / RFU, ADSS / Fold change vs veh, ADSS / RFU, GK / Fold change vs veh, GK / RFU, ZNF148 / Fold change vs veh, ZNF148 / RFU, TAF9 / Fold change vs veh, TAF9 / RFU, SLC1A5 / Fold change vs veh, SLC1A5 / RFU, SLMO2 / Fold change vs veh, SLMO2 / RFU, ABCC4 / Fold change vs veh, ABCC4 / RFU, LOC101060439 /// RAP1B / Fold change vs veh, LOC101060439 /// RAP1B / RFU, RFX7 / Fold change vs veh, RFX7 / RFU, GTPBP10 / Fold change vs veh, GTPBP10 / RFU, CNEP1R1 / Fold change vs veh, CNEP1R1 / RFU, BIVM-ERCC5 /// ERCC5 / Fold change vs veh, BIVM-ERCC5 /// ERCC5 / RFU, ILF3 / Fold change vs veh, ILF3 / RFU 11762660_at / Fold change /veh 11762660_at / RFU VCAN (11757783_s_at) / Fold change /veh VCAN (11757783_s_at) / RFU DDX43 (11728927_at) / Fold change /veh DDX43 (11728927_at) / RFU KRT8 (11758188_x_at) / Fold change /veh KRT8 (11758188_x_at) / RFU NKD1 (11759106_at) / Fold change /veh NKD1 (11759106_at) / RFU SRD5A1 (11742802_a_at) / Fold change /veh SRD5A1 (11742802_a_at) / RFU TPSAB1 /// TPSB2 (11721975_s_at) / Fold change /veh TPSAB1 /// TPSB2 (11721975_s_at) / RFU GSTM3 (11746129_a_at) / Fold change /veh GSTM3 (11746129_a_at) / RFU IL23R (11737362_x_at) / Fold change /veh IL23R (11737362_x_at) / RFU TMEM51 (11727254_a_at) / Fold change /veh TMEM51 (11727254_a_at) / RFU PIWIL2 (11732686_x_at) / Fold change /veh PIWIL2 (11732686_x_at) / RFU ORM1 (11744905_x_at) / Fold change /veh ORM1 (11744905_x_at) / RFU CCDC152 (11743942_at) / Fold change /veh CCDC152 (11743942_at) / RFU ECM1 (11717891_a_at) / Fold change /veh ECM1 (11717891_a_at) / RFU IL23R (11748794_a_at) / Fold change /veh IL23R (11748794_a_at) / RFU TNFAIP8L3 (11732012_x_at) / Fold change /veh TNFAIP8L3 (11732012_x_at) / RFU MBOAT4 (11741988_at) / Fold change /veh MBOAT4 (11741988_at) / RFU 11764193_at / Fold change /veh 11764193_at / RFU TMEM53 (11763286_at) / Fold change /veh TMEM53 (11763286_at) / RFU MAGEB2 (11727129_at) / Fold change /veh MAGEB2 (11727129_at) / RFU TMEM200A (11744735_a_at) / Fold change /veh TMEM200A (11744735_a_at) / RFU CCDC152 (11751479_a_at) / Fold change /veh CCDC152 (11751479_a_at) / RFU FAM211A (11726209_a_at) / Fold change /veh FAM211A (11726209_a_at) / RFU RGS16 (11746705_a_at) / Fold change /veh RGS16 (11746705_a_at) / RFU VCAN (11755009_s_at) / Fold change /veh VCAN (11755009_s_at) / RFU RHOB (11743442_s_at) / Fold change /veh RHOB (11743442_s_at) / RFU RGS16 (11720943_a_at) / Fold change /veh RGS16 (11720943_a_at) / RFU RGS16 (11720944_at) / Fold change /veh RGS16 (11720944_at) / RFU, VPS4B / Fold change vs veh, VPS4B / RFU, CREB1 / Fold change vs veh, CREB1 / RFU, DNAJC13 / Fold change vs veh, DNAJC13 / RFU, GNAQ / Fold change vs veh, GNAQ / RFU, CDK5R1 / Fold change vs veh, CDK5R1 / RFU, ZRANB3 / Fold change vs veh, ZRANB3 / RFU, CUL4A / Fold change vs veh, CUL4A / RFU, CCNY / Fold change vs veh, CCNY / RFU, UFL1 / Fold change vs veh, UFL1 / RFU, COG3 / Fold change vs veh, COG3 / RFU, DIAPH2 / Fold change vs veh, DIAPH2 / RFU, SKA2 / Fold change vs veh, SKA2 / RFU, AFF3 / Fold change vs veh, AFF3 / RFU, LMF1 / Fold change vs veh, LMF1 / RFU, IPO11 / Fold change vs veh, IPO11 / RFU, DFFB / Fold change vs veh, DFFB / RFU, FOXP1 / Fold change vs veh, FOXP1 / RFU, CARD8 / Fold change vs veh, CARD8 / RFU, STRN3 / Fold change vs veh, STRN3 / RFU, ADK / Fold change vs veh, ADK / RFU, RASSF2 / Fold change vs veh, RASSF2 / RFU, WIPF1 / Fold change vs veh, WIPF1 / RFU, LARP1B / Fold change vs veh, LARP1B / RFU, RASA1 / Fold change vs veh, RASA1 / RFU, RB1 / Fold change vs veh, RB1 / RFU, PPFIA1 / Fold change vs veh, PPFIA1 / RFU, MAT2A / Fold change vs veh, MAT2A / RFU, CCT5 / Fold change vs veh, CCT5 / RFU, WDR92 / Fold change vs veh, WDR92 / RFU, CUX1 / Fold change vs veh, CUX1 / RFU, TTC7A / Fold change vs veh, TTC7A / RFU, TMEM135 / Fold change vs veh, TMEM135 / RFU, DEPTOR / Fold change vs veh, DEPTOR / RFU, CPM / Fold change vs veh, CPM / RFU, DNAJB6 / Fold change vs veh, DNAJB6 / RFU, CACNA2D3 / Fold change vs veh, CACNA2D3 / RFU, DTX4 / Fold change vs veh, DTX4 / RFU, TFCP2 / Fold change vs veh, TFCP2 / RFU, GMCL1 /// GMCL1P1 / Fold change vs veh, GMCL1 /// GMCL1P1 / RFU, AEBP2 / Fold change vs veh, AEBP2 / RFU, SNHG1 /// SNORD22 /// SNORD25 /// SNORD26 /// SNORD27 /// SNORD28 /// SNORD29 /// SNORD31 / Fold change vs veh, SNHG1 /// SNORD22 /// SNORD25 /// SNORD26 /// SNORD27 /// SNORD28 /// SNORD29 /// SNORD31 / Fold change (Aza/veh), C12orf56 (ProbeSet 11735607_a_at) / Fold change (ACY-1035/veh), C12orf56 (ProbeSet 11735607_a_at) / Fold change (Aza/veh), FGFR1OP (ProbeSet 11751329_s_at) / Fold change (ACY-1035/veh), FGFR1OP (ProbeSet 11751329_s_at) / Fold change (Aza/veh), VPS36 (ProbeSet 11739960_a_at) / Fold change (ACY-1035/veh), VPS36 (ProbeSet 11739960_a_at) / RFU SYPL1 (11715823_x_at) / Fold change /veh SYPL1 (11715823_x_at) / RFU IGFBP7 (11715501_s_at) / Fold change /veh IGFBP7 (11715501_s_at) / RFU REEP3 (11722064_at) / Fold change /veh REEP3 (11722064_at) / RFU IGLL1 (11728026_x_at) / Fold change /veh IGLL1 (11728026_x_at): dose or concentration left out as unconfirmed. The conditions noted are these: ProbeSet 11747888_a_at; LIST D.

As to `Nc1ncn([C@@H]2O[C@H](CO)[C@@H](O)[C@H]2O)c(=O)n1` [azacitidine], the “RFU, SH3YL1” value is 53.76 RFU.
